We go through five compounds from US20060247311A1, “Methods for treating lower urinary tract disorders using alpha2delta subunit calcium channel modulators with smooth muscle modulators” (priority 2003, published 2006).

A word on the AUC(0-t): it is the area under the concentration-time curve up to a stated or last time point. Lower therefore signals low exposure. The AUC(0-inf) is the area under the concentration-time curve extrapolated to infinity. Read a low AUC(0-inf) as less exposure. One may read the clearance as the rate of elimination divided by the concentration. In general, Cmax refers to the peak of the concentration-time curve. By Tmax is commonly meant the time from dosing to the highest level. In general, Vd refers to a proportionality between amount in the body and measured concentration, not a real space. A lower Vd goes with confinement near the circulation. Usually half-life stands for the time in which the quantity being followed falls by half. A lower half-life goes with rapid decline.

Series [1] has as its system reduction in bladder capacity following continuous infusion of dilute acetic acid. In words: Dilute acetic acid model in cats (bladder capacity, voiding efficiency). The format is in vivo. The following applies: cat, gabapentin 30 mg/kg dose alone.
Experimental: The objective of this study was to determine the ability of an α2δ subunit calcium channel modulator in combination with a smooth muscle modulator to reverse the reduction in bladder capacity seen following continuous infusion of dilute acetic acid in a cat model, a commonly used model of overactive bladder.
Alpha-chloralose anesthetized (50-100 mg/kg) normal female cats (2.5-3.5 kg; Harlan) were utilized in this study.
Animals were dosed by volume of injection=body weight in kg.
Female cats (2.5-3.5 kg; Harlan) had their food removed the night before the experiment. The following morning, the cat was anesthetized with isoflurane and prepped for surgery using aseptic technique. Polyethylene catheters were surgically placed to permit the measurement of bladder pressure, urethral pressure, arterial pressure, respiratory rate as well as for the delivery of drugs. Fine wire electrodes were implanted alongside the external urethral anal sphincter. Following surgery, the cats were slowly switched from the gas anesthetic isoflurane (2-3.5%) to alpha-chloralose (50-100 mg/kg). During control cystometry, saline was slowly infused into the bladder (0.5-1.0 m/min) for 1 hour. […] After assessing the cystometric variables under these baseline conditions, the effects of test drug(s) on micturition were determined via a 3-5 point dose response protocols. […]
Another series in a line: in vivo. The following applies: female, rat, iv; for AUC(0-t): AUC0-t (Mean); for Cmax: Cmax (Mean); for Vd: Vz (Mean); for half-life: t1/2 (Mean).
In series [2] the test system is reduction in bladder capacity following continuous infusion of dilute acetic acid. In words: Dilute acetic acid model, acute anesthetized in vivo model (bladder capacity by cystometry). The following applies: rat, isobologram construction, i.v.; both drugs alone and low-dose combinations. An excerpt: Urethane anesthetized (1.2 g/kg) normal female rats were utilized in this study.
Animal Preparation: Female rats (250-300 g body weight) were anesthetized with urethane (1.2 g/kg) and a saline-filled catheter (PE-50) was inserted into the jugular vein for intravenous drug administration. […] The abdominal cavity was moistened with saline and closed by covering with a thin plastic sheet in order to maintain access to the bladder for emptying purposes. Fine silver or stainless steel wire electrodes were inserted into the external urethral sphincter (EUS) percutaneously for electromyography (EMG).
Following 30 minutes of AA infusion, 3 vehicle injections were made at 20 minute intervals to determine vehicle effects, if any.
P<0.050 was considered significant.

For series [3] the following is noted: preclinical and clinical studies, in contrast to gabapentin itself, cited from earlier work.
Series [4] has as its system α2δ subunit of calcium channels. To be noted: Bryans et al. (1999); cited from earlier work.
Series [5] relates to bladder instability and bladder capacity in SCI rats. To be noted: SCI rats (Cheng et al., 1995); cited from earlier work.
Where [6] appears, read: 100 mg/kg, gabapentin in rat plasma after 100 mg/kg gabapentin i.v., alone (Gab) or with 3 mg/kg oxybutynin (Com), group Mean, outliers excluded.
Where [7] appears, read: 100 mg/kg, gabapentin in rat plasma after 100 mg/kg gabapentin i.v., alone (Gab) or with 3 mg/kg oxybutynin (Com), group Mean.
Setting [8] is: female, rat, in vivo, iv, 3 mg/kg.

Structures are written as SMILES. “And” between values parts separate entries of the source, which are not always exact repeats. Identical values can stand only once.

With `NCC1(CC(=O)O)CCCCC1` [gabapentin, 1-(aminomethyl) cyclohexaneacetic acid], under “gabapentin in rat plasma after 100 mg/kg gabapentin i.v., alone (Gab) or with 3 mg/kg oxybutynin (Com), individual animals, listed as Gab”, the “AUC0-∞” value was 1.37e+07 ng·min/mL and 2.19e+07 ng·min/mL and 1.44e+07 ng·min/mL. Moreover, the “effect on bladder capacity” value in series [1] is on record as “no significant effect”. Moreover, in the series “in vivo” (setting [6]), the AUC(0-t) is 158 µg·h/mL and the concentration peaked (Cmax) at 98600 ng/mL. This compound showed a total exposure AUC(0-inf) in the series “in vivo” (100 mg/kg, AUC0-∞ (Mean), gabapentin in rat plasma after 100 mg/kg gabapentin i.v., alone (Gab) or with 3 mg/kg oxybutynin (Com), group Mean) of 270 µg·h/mL. Further, the AUC(0-inf) in the series “in vivo” (100 mg/kg, AUC0-∞, gabapentin in rat plasma after 100 mg/kg gabapentin i.v., alone (Gab) or with 3 mg/kg oxybutynin (Com), individual animals) was 325 µg·h/mL. This compound came in with a clearance in the series “in vivo” (100 mg/kg, CL (Mean), gabapentin in rat plasma after 100 mg/kg gabapentin i.v., alone (Gab) or with 3 mg/kg oxybutynin (Com), group Mean) of 6.52 mL/min/kg. For the same compound, in “in vivo” (100 mg/kg, CL, gabapentin in rat plasma after 100 mg/kg gabapentin i.v., alone (Gab) or with 3 mg/kg oxybutynin (Com), individual animals), the clearance amounted to 5.12 mL/min/kg. Also, the Tmax in “in vivo” (100 mg/kg, Tmax, gabapentin in rat plasma after 100 mg/kg gabapentin i.v., alone (Gab) or with 3 mg/kg oxybutynin (Com), individual animals) was 15 min. In “in vivo” (setting [7]), this compound gave a Vd of 1.24 L/kg and a half-life of 128 min. In series [2], the “common maximal effect / target value, return to % of saline control bladder capacity (individual responses)” value is 31 % of saline control and the “common maximal effect, return to % of saline control bladder capacity (group mean data)” value is given as 43 % of saline control.
`CC(OC(=O)NCC1(CC(=O)O)CCCCC1)OC(=O)C(C)C` (stereo not drawn) [XP13512]: the “blood levels of gabapentin across a broad range of oral doses” value in series [3] (oral) is listed as “dose proportional blood levels of gabapentin”. Besides, in series [3], the “absorption from the large intestine” value was “absorbed efficiently from the large intestine”.
As to `CCN(CC)CC#CCOC(=O)C(O)(c1ccccc1)C1CCCCC1` (stereo not drawn) [oxybutynin, 4-diethylaminio-2-butynyl phenylcyclohexyglycolate], under setting [8], the “AUC0-t (Mean)” value came to 144 ng·min/mL, the “AUC0-∞ (Mean)” value stood at 289 ng·min/mL and the “Vz (Mean)” value amounted to 1310.999 L/kg. Further, in “in vivo” (3 mg/kg), the Tmax is 15 min, the AUC(0-t) was 0.335 µg·h/mL, the Cmax was determined as 329 ng/mL and the Vd turned out to be 10.1 L/kg. Also, the half-life in “in vivo” (3 mg/kg) was found to be 54 min. The compound also had an AUC(0-inf) in “in vivo” (3 mg/kg, AUC0-∞ (Mean)) of 0.41 µg·h/mL. In “in vivo” (3 mg/kg, CL (Mean)), the clearance is 134 mL/min/kg. Also, in series [2], the “common maximal effect / target value, return to % of saline control bladder capacity (individual responses)” value is reported as 31 % of saline control and the “common maximal effect, return to % of saline control bladder capacity (group mean data)” value is 43 % of saline control.
Turning to `CC(C)C[C@H](CN)CC(=O)O` [Pregabalin, (S)-(3-aminomethyl)-5-methylhexanoic acid], the “binding affinity for the α2δ subunit of calcium channels compared with gabapentin” value in series [4] is reported as “even higher binding affinity”.
In the case of `COc1cc(CNC(=O)CCCC/C=C/C(C)C)ccc1O` [capsaicin], in series [5], the “bladder capacity to voiding” value is recorded as “not effect bladder capacity to voiding” and the bladder instability result is “reduce bladder instability”.
